Experimental data as given in the NIST ThermoML archive (doi:10.1021/acs.jced.8b00236).

Test: mn = molality of the nth substance listed, in mol/kg
Conditions: 75 kPa, Liquid; for viscosity: Capillary tube (Ostwald / Ubbelohde) method; for speed of sound: Frequency=3 MHz, Single path-length method; for mass density: Vibrating tube method

NCC(=O)O [2-aminoacetic acid] + O
Conditions	mass density [kg/m3]	speed of sound [m/s]	viscosity [mPa·s]
288.15 K, m1 = 0.1393	1003.55	1474.2	1.166
288.15 K, m1 = 0.2791	1007.86	1482	1.185
288.15 K, m1 = 0.4196	1012.03	1489.7	1.205
288.15 K, m1 = 0.56	1016.03	1497.4	1.226
288.15 K, m1 = 0.7019	1019.92	1505	1.248
288.15 K, m1 = 0.8453	1023.68	1512.6	1.27
288.15 K, m1 = 0.9876	1027.24	1520.1	1.295
288.15 K, m1 = 1.132	1030.68	1527.5	1.318
293.15 K, m1 = 0.1393	1002.61	1490.2	1.025
293.15 K, m1 = 0.2791	1006.87	1497.7	1.044
293.15 K, m1 = 0.4196	1010.97	1505.2	1.064
293.15 K, m1 = 0.56	1014.91	1512.5	1.084
293.15 K, m1 = 0.7019	1018.74	1519.8	1.104
293.15 K, m1 = 0.8453	1022.45	1527	1.125
293.15 K, m1 = 0.9876	1025.96	1534	1.146
293.15 K, m1 = 1.132	1029.37	1541	1.166
298.15 K, m1 = 0.1393	1001.4	1504.1	0.912
298.15 K, m1 = 0.2791	1005.6	1511.4	0.929
298.15 K, m1 = 0.4196	1009.68	1518.7	0.946
298.15 K, m1 = 0.56	1013.59	1525.8	0.964
298.15 K, m1 = 0.7019	1017.38	1532.8	0.982
298.15 K, m1 = 0.8453	1021.05	1539.8	0.999
298.15 K, m1 = 0.9876	1024.54	1546.6	1.011
298.15 K, m1 = 1.132	1027.89	1553.3	1.026
303.15 K, m1 = 0.1393	999.949	1516.3	0.82
303.15 K, m1 = 0.2791	1004.11	1523.4	0.839
303.15 K, m1 = 0.4196	1008.15	1530.5	0.853
303.15 K, m1 = 0.56	1012.03	1537.5	0.869
303.15 K, m1 = 0.7019	1015.8	1544.3	0.885
303.15 K, m1 = 0.8453	1019.44	1551.2	0.901
303.15 K, m1 = 0.9876	1022.91	1557.8	0.913
303.15 K, m1 = 1.132	1026.27	1564.5	0.929
308.15 K, m1 = 0.1393	998.286	1526.7	0.734
308.15 K, m1 = 0.2791	1002.41	1533.6	0.752
308.15 K, m1 = 0.4196	1006.42	1540.5	0.772
308.15 K, m1 = 0.56	1010.28	1547.2	0.785
308.15 K, m1 = 0.7019	1014.04	1553.9	0.804
308.15 K, m1 = 0.8453	1017.7	1560.5	0.815
308.15 K, m1 = 0.9876	1021.16	1567	0.825
308.15 K, m1 = 1.132	1024.55	1573.4	0.839

NCCCCC(=O)O [5-aminovaleric acid] + O
Conditions	mass density [kg/m3]	speed of sound [m/s]	viscosity [mPa·s]
288.15 K, m1 = 0.1389	1003.29	1481	1.215
288.15 K, m1 = 0.2789	1007.34	1495.3	1.293
288.15 K, m1 = 0.4193	1011.22	1509.3	1.38
288.15 K, m1 = 0.5604	1014.96	1523	1.473
288.15 K, m1 = 0.7025	1018.54	1536.5	1.575
288.15 K, m1 = 0.8448	1021.98	1549.8	1.685
293.15 K, m1 = 0.1389	1002.34	1496.8	1.073
293.15 K, m1 = 0.2789	1006.33	1510.7	1.135
293.15 K, m1 = 0.4193	1010.16	1524.2	1.208
293.15 K, m1 = 0.5604	1013.85	1537.5	1.289
293.15 K, m1 = 0.7025	1017.4	1550.4	1.376
293.15 K, m1 = 0.8448	1020.81	1562.9	1.477
298.15 K, m1 = 0.1389	1001.15	1510.3	0.946
298.15 K, m1 = 0.2789	1005.16	1523.7	1.003
298.15 K, m1 = 0.4193	1009.06	1536.7	1.063
298.15 K, m1 = 0.5604	1012.86	1549.3	1.143
298.15 K, m1 = 0.7025	1016.56	1561.6	1.215
298.15 K, m1 = 0.8448	1020.15	1573.5	1.301
303.15 K, m1 = 0.1389	999.722	1522.1	0.853
303.15 K, m1 = 0.2789	1003.72	1534.9	0.893
303.15 K, m1 = 0.4193	1007.61	1547.4	0.95
303.15 K, m1 = 0.5604	1011.41	1559.5	1.013
303.15 K, m1 = 0.7025	1015.13	1571.3	1.077
303.15 K, m1 = 0.8448	1018.76	1582.7	1.158
308.15 K, m1 = 0.1389	998.079	1532.3	0.762
308.15 K, m1 = 0.2789	1002.05	1544.6	0.8
308.15 K, m1 = 0.4193	1005.91	1556.5	0.848
308.15 K, m1 = 0.5604	1009.68	1568.2	0.9
308.15 K, m1 = 0.7025	1013.37	1579.4	0.957
308.15 K, m1 = 0.8448	1016.96	1590.2	1.019
